*1 amine or outer side, *2 acyl side, *3 side chain or, on linkers, in order; H or OH if unused. Where a SMILES comes first, the peptide text is derived from it. Bridges are numbered along the chain shown (N, C = ends). [ ]: non-standard residue; d: D form. The star is where a group is joined. hTyr(3S-OH,4S-OH,3'-OSO3H) = N[C@H](C(=O)O)[C@H](O)[C@@H](O)c1ccc(O)c(OS(=O)(=O)O)c1; Orn(4R-OH,5R-OH) = O=C([C@H](C[C@@H](O)[C@@H](O)N[*:3])N[*:1])[*:2]; Pro(3S-OH,4S-Me) = C[C@H]1CN[C@H](C(=O)O)[C@H]1O; X1 = CCCCCOc1ccc(-c2cc(-c3ccc(C(=O)*)cc3)no2)cc1; Gln(3R-OH) = NC(=O)C[C@@H](O)[C@H](N)C(=O)O; Hyp = O=C(O)[C@@H]1C[C@@H](O)CN1
Key:
Adenosine receptor A3 [1] = target: T1, Adenosine receptor A3 (Homo sapiens, UniProt P0DMS8)
T1 sequence (P0DMS8 whole entry): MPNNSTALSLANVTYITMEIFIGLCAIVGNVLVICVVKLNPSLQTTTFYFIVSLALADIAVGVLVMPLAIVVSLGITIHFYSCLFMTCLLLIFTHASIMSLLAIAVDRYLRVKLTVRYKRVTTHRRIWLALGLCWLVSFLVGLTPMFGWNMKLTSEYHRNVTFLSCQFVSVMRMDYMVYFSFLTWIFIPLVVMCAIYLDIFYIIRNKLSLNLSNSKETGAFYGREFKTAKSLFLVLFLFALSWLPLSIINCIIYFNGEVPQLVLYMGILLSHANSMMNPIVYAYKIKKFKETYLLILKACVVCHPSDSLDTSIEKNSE

[2] = target: T2, Muscarinic acetylcholine receptor M1 (Homo sapiens, UniProt P11229); format: functional, cell-based
T2 sequence (P11229 whole entry): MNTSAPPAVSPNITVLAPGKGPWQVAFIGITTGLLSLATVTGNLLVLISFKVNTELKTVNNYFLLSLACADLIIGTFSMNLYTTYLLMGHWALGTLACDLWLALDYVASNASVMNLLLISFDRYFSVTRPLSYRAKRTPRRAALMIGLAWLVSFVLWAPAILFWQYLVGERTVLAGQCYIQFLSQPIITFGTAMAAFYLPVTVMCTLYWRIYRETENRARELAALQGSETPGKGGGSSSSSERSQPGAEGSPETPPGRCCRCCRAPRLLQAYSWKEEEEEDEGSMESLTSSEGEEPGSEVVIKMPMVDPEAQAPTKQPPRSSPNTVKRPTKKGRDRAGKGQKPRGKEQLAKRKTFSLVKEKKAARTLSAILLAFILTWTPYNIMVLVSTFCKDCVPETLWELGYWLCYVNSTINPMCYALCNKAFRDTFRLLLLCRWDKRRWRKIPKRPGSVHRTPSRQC

[3] = target: T2, Muscarinic acetylcholine receptor M1; format: functional, cell-based; remark: listed apart in the source
Adenosine receptor A3 [4] = target: T1, Adenosine receptor A3; remark: listed apart in the source
[5] = target: T3, Type-1 angiotensin II receptor (Homo sapiens, UniProt P30556)
T3 sequence (P30556 whole entry): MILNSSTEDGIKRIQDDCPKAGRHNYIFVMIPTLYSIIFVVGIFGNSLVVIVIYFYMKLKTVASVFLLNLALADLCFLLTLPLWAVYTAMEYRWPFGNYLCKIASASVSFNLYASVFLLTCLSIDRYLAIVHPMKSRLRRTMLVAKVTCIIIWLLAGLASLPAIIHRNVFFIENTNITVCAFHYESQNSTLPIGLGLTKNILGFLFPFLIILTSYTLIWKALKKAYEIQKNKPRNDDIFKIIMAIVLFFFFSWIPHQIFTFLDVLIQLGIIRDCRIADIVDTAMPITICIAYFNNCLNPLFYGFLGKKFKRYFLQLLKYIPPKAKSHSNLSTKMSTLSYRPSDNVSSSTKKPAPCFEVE

[6] = target: T4, Muscarinic acetylcholine receptor M2 (Homo sapiens, UniProt P08172); format: functional, cell-based
T4 sequence (P08172 whole entry): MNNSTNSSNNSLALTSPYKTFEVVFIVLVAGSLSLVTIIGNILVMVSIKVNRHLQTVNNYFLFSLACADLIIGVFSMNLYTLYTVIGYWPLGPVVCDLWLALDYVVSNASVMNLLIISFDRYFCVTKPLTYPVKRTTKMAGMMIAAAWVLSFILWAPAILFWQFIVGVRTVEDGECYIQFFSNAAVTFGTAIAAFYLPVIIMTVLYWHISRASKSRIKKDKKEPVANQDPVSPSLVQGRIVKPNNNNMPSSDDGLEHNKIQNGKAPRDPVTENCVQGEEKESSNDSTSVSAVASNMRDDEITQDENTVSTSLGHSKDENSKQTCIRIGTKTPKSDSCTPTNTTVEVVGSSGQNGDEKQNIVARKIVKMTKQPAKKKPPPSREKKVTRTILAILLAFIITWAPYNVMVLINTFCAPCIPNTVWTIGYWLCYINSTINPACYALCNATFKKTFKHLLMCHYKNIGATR

[7] = target: Gamma-aminobutyric acid receptor subunit alpha-1 (Rattus norvegicus, UniProt P62813); format: functional
[8] = target: T5, 5-hydroxytryptamine receptor 3A (Homo sapiens, UniProt P46098); format: functional
T5 sequence (P46098 whole entry): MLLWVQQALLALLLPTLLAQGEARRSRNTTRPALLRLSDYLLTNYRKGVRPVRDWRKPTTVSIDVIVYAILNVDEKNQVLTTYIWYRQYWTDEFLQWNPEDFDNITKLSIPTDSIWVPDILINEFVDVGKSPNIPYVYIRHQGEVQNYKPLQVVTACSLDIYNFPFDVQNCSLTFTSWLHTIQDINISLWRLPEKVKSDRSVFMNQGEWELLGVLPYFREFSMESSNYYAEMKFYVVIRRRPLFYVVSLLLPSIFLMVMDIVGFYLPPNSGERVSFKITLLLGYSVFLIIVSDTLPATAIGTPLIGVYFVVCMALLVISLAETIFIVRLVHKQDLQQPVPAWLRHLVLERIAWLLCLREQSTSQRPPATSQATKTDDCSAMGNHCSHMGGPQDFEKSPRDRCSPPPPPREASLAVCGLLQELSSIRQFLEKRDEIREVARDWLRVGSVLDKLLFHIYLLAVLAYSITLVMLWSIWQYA

[9] = target: Delta-type opioid receptor (Homo sapiens, UniProt P41143)
[10] = target: T6, Alpha-2A adrenergic receptor (Homo sapiens, UniProt P08913); format: functional, cell-based
T6 sequence (P08913 whole entry): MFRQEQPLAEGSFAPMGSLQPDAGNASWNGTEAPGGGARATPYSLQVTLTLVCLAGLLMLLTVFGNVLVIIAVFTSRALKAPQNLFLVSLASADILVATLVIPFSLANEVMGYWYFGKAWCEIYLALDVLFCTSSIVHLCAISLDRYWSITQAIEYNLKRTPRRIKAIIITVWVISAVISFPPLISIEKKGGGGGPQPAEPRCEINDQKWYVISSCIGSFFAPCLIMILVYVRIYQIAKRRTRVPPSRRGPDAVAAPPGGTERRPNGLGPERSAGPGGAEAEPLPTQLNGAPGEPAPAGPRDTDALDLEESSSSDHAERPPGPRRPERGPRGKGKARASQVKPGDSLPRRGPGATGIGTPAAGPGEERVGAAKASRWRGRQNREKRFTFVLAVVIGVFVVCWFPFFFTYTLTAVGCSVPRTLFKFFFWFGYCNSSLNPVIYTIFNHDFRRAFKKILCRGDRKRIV

[11] = target: Beta-1 adrenergic receptor (Homo sapiens, UniProt P08588); format: functional
Note: assay procedure not described here.

Gamma-aminobutyric acid receptor subunit alpha-1, sequence (P62813 whole entry): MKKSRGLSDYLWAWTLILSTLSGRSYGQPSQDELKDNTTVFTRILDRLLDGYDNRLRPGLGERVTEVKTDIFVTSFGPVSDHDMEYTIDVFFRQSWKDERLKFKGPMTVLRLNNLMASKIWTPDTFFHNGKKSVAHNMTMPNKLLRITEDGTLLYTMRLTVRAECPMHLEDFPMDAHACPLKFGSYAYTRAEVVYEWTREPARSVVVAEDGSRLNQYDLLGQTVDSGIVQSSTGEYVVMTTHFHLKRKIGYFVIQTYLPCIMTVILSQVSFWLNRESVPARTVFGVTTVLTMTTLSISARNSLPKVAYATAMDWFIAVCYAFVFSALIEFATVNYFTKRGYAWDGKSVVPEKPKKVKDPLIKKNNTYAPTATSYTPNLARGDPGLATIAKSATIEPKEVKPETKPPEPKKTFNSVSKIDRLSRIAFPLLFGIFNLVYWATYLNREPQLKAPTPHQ
Delta-type opioid receptor, sequence (P41143 whole entry): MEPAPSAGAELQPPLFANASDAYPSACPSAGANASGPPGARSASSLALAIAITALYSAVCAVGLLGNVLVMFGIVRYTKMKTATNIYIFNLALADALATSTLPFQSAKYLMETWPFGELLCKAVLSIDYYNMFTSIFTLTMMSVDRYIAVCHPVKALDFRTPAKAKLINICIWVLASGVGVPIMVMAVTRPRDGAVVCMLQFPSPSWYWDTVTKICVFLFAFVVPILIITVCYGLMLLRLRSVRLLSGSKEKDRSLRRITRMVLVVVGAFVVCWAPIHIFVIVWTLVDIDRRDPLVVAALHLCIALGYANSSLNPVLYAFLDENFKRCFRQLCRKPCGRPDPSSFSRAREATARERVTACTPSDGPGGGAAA
Beta-1 adrenergic receptor, sequence (P08588 whole entry): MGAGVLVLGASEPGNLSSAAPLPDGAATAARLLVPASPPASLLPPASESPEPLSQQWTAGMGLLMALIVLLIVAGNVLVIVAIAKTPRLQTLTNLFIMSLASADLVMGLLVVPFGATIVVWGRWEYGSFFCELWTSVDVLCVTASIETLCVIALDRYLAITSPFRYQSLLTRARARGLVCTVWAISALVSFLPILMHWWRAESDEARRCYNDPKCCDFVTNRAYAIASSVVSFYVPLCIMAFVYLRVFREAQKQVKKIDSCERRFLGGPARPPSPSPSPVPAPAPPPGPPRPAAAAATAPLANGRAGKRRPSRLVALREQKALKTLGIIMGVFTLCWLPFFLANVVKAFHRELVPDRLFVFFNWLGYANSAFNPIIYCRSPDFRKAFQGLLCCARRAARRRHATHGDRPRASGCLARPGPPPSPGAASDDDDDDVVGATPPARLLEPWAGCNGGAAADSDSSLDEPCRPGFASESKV

Compound | AC50 (Adenosine receptor A3 [1]) | AC50 [2] | AC50 [3] | other results
COc1nccnc1NS(=O)(=O)c1ccc(N)cc1 | > 30 µM | > 30 µM | > 30 µM | –
O=C(Nc1cccc2c(=O)cc(-c3nnn[nH]3)oc12)c1ccc(OCCCCc2ccccc2)cc1 | – | > 30 µM | > 30 µM | –
NC(=O)c1nc(F)c[nH]c1=O | > 30 µM | > 30 µM | > 30 µM | –
CN(C)CCCN1C(=O)c2cc([N+](=O)[O-])ccc2Oc2ccccc21 | > 30 µM | > 30 µM | > 30 µM | –
O=C(O)COc1nn(Cc2ccccc2)c2ccccc12 [BENDAZAC] | > 30 µM | > 30 µM | > 30 µM | –
Cc1ccc([C@@H]2O[C@H](CO)[C@@H](O)[C@H](O)[C@H]2O)cc1Cc1ccc(-c2ccc(F)cc2)s1 [CANAGLIFLOZIN ANHYDROUS] | 18.4 µM | > 30 µM | > 30 µM | –
O=C(O)c1cc(=O)c2ccccc2o1 [CHROMOCARB] | > 30 µM | > 30 µM | > 30 µM | –
CN(CC(=O)O)C(=N)N [CREATINE] | > 30 µM | > 30 µM | > 30 µM | –
N[C@@H](CSSC[C@H](N)C(=O)O)C(=O)O [CYSTINE] | > 30 µM | > 30 µM | > 30 µM | –
C[C@]12CC[C@@H]3c4ccc(O)cc4CC[C@H]3[C@@H]1CC[C@@H]2OC(=O)CCC1CCCC1 [ESTRADIOL CYPIONATE] | 9.98 µM | > 30 µM | > 30 µM | –
C[C@]12CCC(=O)C=C1CC[C@@H]1[C@@H]2[C@@H](O)C[C@@]2(C)[C@H]1CC[C@]2(O)C(=O)COC(=O)CCC(=O)O [HYDROCORTISONE HEMISUCCINATE ANHYDROUS] | > 30 µM | > 30 µM | > 30 µM | –
N=C(N)NCc1cccc([123I])c1 [IOBENGUANE I 123] | > 30 µM | > 30 µM | > 30 µM | –
CC(C)(N)C(=O)N[C@H](Cc1c[nH]c2ccccc12)C(=O)N[C@H](Cc1c[nH]c2ccccc12)NC=O [MACIMORELIN] | – | > 30 µM | > 30 µM | –
C=C1c2c(Cl)ccc(O)c2C(=O)C2=C(O)[C@]3(O)C(=O)C(C(N)=O)=C(O)[C@@H](N(C)C)[C@@H]3[C@@H](O)[C@H]12 [MECLOCYCLINE] | > 30 µM | > 30 µM | > 30 µM | –
Cc1cc2c(OCC(O)CNC(C)C)cccc2[nH]1 (stereo not drawn) [MEPINDOLOL] | > 30 µM | > 30 µM | > 30 µM | –
CCCCCOc1ccc(-c2cc(-c3ccc(C(=O)N[C@H]4C[C@@H](O)[C@@H](O)NC(=O)[C@@H]5[C@@H](O)[C@@H](C)CN5C(=O)[C@H]([C@H](O)CC(N)=O)NC(=O)[C@H]([C@H](O)[C@@H](O)c5ccc(O)c(OS(=O)(=O)O)c5)NC(=O)[C@@H]5C[C@@H](O)CN5C(=O)[C@H]([C@@H](C)O)NC4=O)cc3)no2)cc1 [MICAFUNGIN] (X1-[Orn(4R-OH,5R-OH)]T[Hyp][hTyr(3S-OH,4S-OH,3'-OSO3H)][Gln(3R-OH)][Pro(3S-OH,4S-Me)]; lactam 1-C) | 11.4 µM | > 30 µM | 9.05 µM | –
CCOc1ccc2ccccc2c1C(=O)N[C@@H]1C(=O)N2[C@@H]1SC(C)(C)[C@@H]2C(=O)O [NAFCILLIN] | > 30 µM | > 30 µM | > 30 µM | –
C#C[C@]1(O)CC[C@H]2[C@@H]3CCC4=C(CCC(=O)C4)[C@H]3CC[C@@]21C [NORETHYNODREL] | 10.1 µM | […] | […] | –
CCCCCCCCCCC[C@@H](C[C@@H]1OC(=O)[C@H]1CCCCCC)OC(=O)[C@H](CC(C)C)NC=O [ORLISTAT] | > 30 µM | > 30 µM | > 30 µM | –
O=C1[C@H]2CCCC[C@H]2C(=O)N1CCCCN1CCN(c2nsc3ccccc23)CC1 [PEROSPIRONE] | > 30 µM | > 30 µM | 10.3 µM | –
CN(C)CCC(c1ccccc1)c1ccccn1 (stereo not drawn) [PHENIRAMINE] | > 30 µM | > 30 µM | > 30 µM | –
CNC[C@H](O)c1cccc(O)c1 [PHENYLEPHRINE] | > 30 µM | > 30 µM | > 30 µM | AC50 (Adenosine receptor A3 [4]): > 30 µM; AC50 [5]: > 30 µM; AC50 [6]: > 10 µM; AC50 [7]: > 10 µM; AC50 [8]: > 10 µM; AC50 [9]: > 10 µM
CC(C)(C)C(=O)NCCCC(=O)O [PIVAGABINE] | > 30 µM | > 30 µM | > 30 µM | –
CC(C)[N+](C)(CCOC(=O)C1c2ccccc2Oc2ccccc21)C(C)C [PROPANTHELINE] | > 30 µM | > 30 µM | 0.003 µM | –
CN(C)C(=O)c1nc(CNC(=O)CN)n(-c2ccc(Cl)cc2C(=O)c2ccccc2Cl)n1 [RILMAZAFONE] | > 30 µM | > 30 µM | > 30 µM | –
NC(=O)NS(=O)(=O)c1ccc(N)cc1 [SULFACARBAMIDE] | > 30 µM | > 30 µM | > 30 µM | –
CC1(C)O[C@@H]2[C@@H](CO[C@@]3(COS(N)(=O)=O)OC(C)(C)O[C@@H]23)O1 [TOPIRAMATE] | – | > 30 µM | > 30 µM | AC50 (Adenosine receptor A3 [4]): > 30 µM; AC50 [10]: > 10 µM; AC50 [11]: > 10 µM; AC50 [5]: > 30 µM; AC50 [6]: > 10 µM; AC50 [7]: > 10 µM; AC50 [8]: > 10 µM; AC50 [9]: > 10 µM
NCCc1ccc(O)cc1 [TYRAMINE] | > 30 µM | > 30 µM | > 30 µM | –
CCCCCCCCCCCCCCCC(=O)OC/C=C(C)/C=C/C=C(C)/C=C/C1=C(C)CCCC1(C)C [VITAMIN A PALMITATE] | 11.6 µM | > 30 µM | > 30 µM | –
